Experimental data from PMC6017062, “Probing the Inhibitor versus Chaperone Properties of sp^2-Iminosugars towards Human β-Glucocerebrosidase: A Picomolar Chaperone for Gaucher Disease” (Molecules : A Journal of Synthetic Chemistry and Natural …, 2018).
Read-outs that look alike come from different tables or passages of the source.

What was measured:
Type in all cases: biochemical
[1] = biological target: T1, α-glucosidase maltase (yeast maltase; α-Glcase1) (Saccharomyces cerevisiae, UniProt P53341); assay: Commercial glycosidase inhibition: maltase (yeast maltase; α-Glcase1); conditions: three determinations, competitive, n.i. = no inhibition detected at 1 mM
T1 construct: purchased
From the text: (§1) We first evaluated the inhibitory properties of the new nonreducing mono- and bicyclic sp^2-iminosugars 4–15 against a panel of commercial glycosidases that included the α-glucosidases maltase (yeast maltase; α-Glcase1) and isomaltase (α-Glcase2) from Saccharomyces cerevisiae and amyloglucosidase (α-Glcase3) from Aspergillus niger, the β-glucosidases from almonds (β-Glcase1) and bovine liver (β-Glcase2), the α-galactosidase from green coffee beans (α-Galase), the β-galactosidase from Escherichia coli (β-Galase), and the α-mannosidase from Jack bean (α-Manase).
(§2) Inhibition constant (Ki) values were determined by spectrophotometrically measuring the residual hydrolytic activities of the glycosidases against the respective o- (for β-galactosidase from E. coli) or p-nitrophenyl α- or β-D-glycopyranoside (for other glycosidases) in the presence of the iminosugars. Each assay was performed in phosphate buffer or phosphate-citrate buffer (for α- or β-mannosidase and amyloglucosidase) at the optimal pH for the enzymes. The reactions were initiated by addition of the enzyme to a solution of the substrate in the absence or presence of various inhibitor concentrations. The mixture was incubated for 10–30 min at 37 °C or 55 °C (for amyloglucosidase) and the reaction was quenched by addition of 1 M Na2CO3. Reaction times were appropriate to obtain 10–20% conversion of the substrate in order to achieve linear rates. The absorbance of the resulting mixture was determined at 405 nm. Approximate value of Ki was determined from the slope of Dixon plots using a fixed concentration of substrate (around the Km value for the different glycosidases) and various concentrations of inhibitor. Full Ki determinations and enzyme inhibition mode were determined from the slope of Lineweaver–Burk plots and double reciprocal analysis.

[2] = biological target: T2, α-galactosidase from green coffee beans (α-Galase) (Coffea arabica, UniProt Q42656); assay: Commercial glycosidase inhibition: α-galactosidase from green coffee beans (α-Galase); conditions: mean ± SD, three determinations; competitive; n.i. = no inhibition detected at 1 mM
T2 construct: purchased
From the text: as §1, §2

[3] = biological target: T3, β-galactosidase (β-Galase) (Escherichia coli, UniProt P00722); assay: Commercial glycosidase inhibition: β-galactosidase from E. coli (β-Galase); conditions: mean ± SD, three determinations; competitive; n.i. = no inhibition detected at 1 mM
T3 construct: purchased
From the text: as §1, §2

[4] = biological target: β-glucosidase from almonds (β-Glcase1); assay: Commercial glycosidase inhibition: β-glucosidase from almonds (β-Glcase1); conditions: mean ± SD, three determinations; competitive; n.i. = no inhibition detected at 1 mM
From the text: as §1, §2

[5] = biological target: T4, α-mannosidase from Jack bean (α-Manase) (Canavalia ensiformis, UniProt C0HJB3); assay: Commercial glycosidase inhibition: α-mannosidase from Jack bean (α-Manase); conditions: mean ± SD, three determinations; competitive; n.i. = no inhibition detected at 1 mM
T4 construct: purchased
T4 sequence (C0HJB3 1-981): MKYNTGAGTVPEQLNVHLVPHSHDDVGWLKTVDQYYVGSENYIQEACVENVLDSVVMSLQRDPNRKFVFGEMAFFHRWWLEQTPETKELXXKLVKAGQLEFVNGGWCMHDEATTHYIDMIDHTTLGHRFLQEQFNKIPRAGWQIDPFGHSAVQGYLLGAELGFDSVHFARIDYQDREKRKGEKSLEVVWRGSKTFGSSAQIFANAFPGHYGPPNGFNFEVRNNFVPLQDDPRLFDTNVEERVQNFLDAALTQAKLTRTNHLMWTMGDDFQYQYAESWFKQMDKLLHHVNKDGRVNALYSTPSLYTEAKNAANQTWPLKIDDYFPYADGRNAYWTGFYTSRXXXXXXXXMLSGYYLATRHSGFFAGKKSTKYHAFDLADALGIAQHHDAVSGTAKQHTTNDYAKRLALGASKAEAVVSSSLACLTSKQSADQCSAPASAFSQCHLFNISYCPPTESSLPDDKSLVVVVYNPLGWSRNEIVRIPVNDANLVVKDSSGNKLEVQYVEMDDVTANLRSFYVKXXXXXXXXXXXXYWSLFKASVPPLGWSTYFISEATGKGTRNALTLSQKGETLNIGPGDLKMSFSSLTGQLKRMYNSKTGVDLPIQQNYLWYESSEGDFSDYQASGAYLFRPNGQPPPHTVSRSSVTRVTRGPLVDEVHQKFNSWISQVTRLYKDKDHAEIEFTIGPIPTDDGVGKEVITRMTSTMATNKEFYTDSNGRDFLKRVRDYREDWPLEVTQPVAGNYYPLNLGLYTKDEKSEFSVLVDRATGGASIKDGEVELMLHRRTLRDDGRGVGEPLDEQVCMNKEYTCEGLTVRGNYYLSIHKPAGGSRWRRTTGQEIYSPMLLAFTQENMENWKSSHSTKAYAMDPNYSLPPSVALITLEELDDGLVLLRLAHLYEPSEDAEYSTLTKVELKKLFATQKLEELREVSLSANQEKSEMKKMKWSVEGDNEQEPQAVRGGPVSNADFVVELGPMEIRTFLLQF
From the text: as §1, §2

isomaltase (α-Glcase2) = biological target: T5, isomaltase (α-Glcase2) (Saccharomyces cerevisiae, UniProt P53051); assay: Commercial glycosidase inhibition: isomaltase (α-Glcase2)
T5 construct: purchased
From the text: as §1, §2

[6] = biological target: T6, amyloglucosidase (α-Glcase3) (Aspergillus niger, UniProt P69328); assay: Commercial glycosidase inhibition: amyloglucosidase (α-Glcase3); conditions: mean ± SD, three determinations; competitive; n.i. = no inhibition detected at 1 mM
T6 construct: purchased
From the text: as §1, §2

[7] = mean ± SD, three determinations, competitive, n.i. = no inhibition detected at 1 mM
[8] = Dixon or Lineweaver-Burk plot, read-out: Ki against isomaltase (supplement figure legends)
[9] = mean ± SD, three determinations, competitive, n.i. = no inhibition detected at 1 mM, read-out: Ki α-Glcase2

T3 sequence (P00722 2-1024 limits assumed): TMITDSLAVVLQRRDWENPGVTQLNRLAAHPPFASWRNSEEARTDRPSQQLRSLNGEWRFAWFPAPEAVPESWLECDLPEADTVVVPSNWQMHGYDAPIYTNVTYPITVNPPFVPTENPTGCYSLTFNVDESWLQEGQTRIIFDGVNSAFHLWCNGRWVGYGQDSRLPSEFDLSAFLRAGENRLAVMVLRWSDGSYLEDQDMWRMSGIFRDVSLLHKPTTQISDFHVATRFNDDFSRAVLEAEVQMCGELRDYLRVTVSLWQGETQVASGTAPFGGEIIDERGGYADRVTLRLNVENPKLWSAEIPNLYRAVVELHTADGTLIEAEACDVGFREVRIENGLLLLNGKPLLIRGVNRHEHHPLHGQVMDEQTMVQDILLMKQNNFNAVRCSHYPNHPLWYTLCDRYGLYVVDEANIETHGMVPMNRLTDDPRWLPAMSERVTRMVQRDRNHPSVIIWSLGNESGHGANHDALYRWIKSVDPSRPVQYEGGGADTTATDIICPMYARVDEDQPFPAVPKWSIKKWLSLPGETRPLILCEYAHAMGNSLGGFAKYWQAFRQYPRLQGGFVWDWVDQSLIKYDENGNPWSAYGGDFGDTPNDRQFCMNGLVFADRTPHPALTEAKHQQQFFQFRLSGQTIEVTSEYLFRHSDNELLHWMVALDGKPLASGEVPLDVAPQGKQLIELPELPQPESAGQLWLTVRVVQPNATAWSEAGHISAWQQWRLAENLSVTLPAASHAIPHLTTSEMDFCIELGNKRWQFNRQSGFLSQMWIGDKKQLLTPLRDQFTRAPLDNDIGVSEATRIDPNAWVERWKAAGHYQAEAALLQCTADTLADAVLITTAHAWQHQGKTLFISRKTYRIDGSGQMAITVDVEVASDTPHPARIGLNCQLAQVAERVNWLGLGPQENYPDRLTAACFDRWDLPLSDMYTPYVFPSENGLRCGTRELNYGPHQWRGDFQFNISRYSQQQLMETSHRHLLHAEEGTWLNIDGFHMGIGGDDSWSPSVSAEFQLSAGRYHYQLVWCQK
T1 sequence (P53341 whole entry): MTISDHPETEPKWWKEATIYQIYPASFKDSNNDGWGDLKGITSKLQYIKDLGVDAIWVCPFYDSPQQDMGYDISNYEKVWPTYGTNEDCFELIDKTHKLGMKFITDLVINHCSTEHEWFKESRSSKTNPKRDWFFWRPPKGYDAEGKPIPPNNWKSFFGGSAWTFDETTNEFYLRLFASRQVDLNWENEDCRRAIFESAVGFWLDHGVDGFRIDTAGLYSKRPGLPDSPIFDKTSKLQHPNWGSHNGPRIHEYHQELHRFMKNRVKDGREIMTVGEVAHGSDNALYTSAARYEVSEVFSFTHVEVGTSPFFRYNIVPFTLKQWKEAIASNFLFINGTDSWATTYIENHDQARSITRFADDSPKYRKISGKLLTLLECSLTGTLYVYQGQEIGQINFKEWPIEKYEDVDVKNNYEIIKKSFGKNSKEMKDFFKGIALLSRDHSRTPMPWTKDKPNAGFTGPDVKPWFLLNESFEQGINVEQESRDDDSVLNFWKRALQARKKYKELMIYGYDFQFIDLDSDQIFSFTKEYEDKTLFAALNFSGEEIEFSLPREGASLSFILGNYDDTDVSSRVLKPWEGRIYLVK
T6 sequence (P69328 25-640): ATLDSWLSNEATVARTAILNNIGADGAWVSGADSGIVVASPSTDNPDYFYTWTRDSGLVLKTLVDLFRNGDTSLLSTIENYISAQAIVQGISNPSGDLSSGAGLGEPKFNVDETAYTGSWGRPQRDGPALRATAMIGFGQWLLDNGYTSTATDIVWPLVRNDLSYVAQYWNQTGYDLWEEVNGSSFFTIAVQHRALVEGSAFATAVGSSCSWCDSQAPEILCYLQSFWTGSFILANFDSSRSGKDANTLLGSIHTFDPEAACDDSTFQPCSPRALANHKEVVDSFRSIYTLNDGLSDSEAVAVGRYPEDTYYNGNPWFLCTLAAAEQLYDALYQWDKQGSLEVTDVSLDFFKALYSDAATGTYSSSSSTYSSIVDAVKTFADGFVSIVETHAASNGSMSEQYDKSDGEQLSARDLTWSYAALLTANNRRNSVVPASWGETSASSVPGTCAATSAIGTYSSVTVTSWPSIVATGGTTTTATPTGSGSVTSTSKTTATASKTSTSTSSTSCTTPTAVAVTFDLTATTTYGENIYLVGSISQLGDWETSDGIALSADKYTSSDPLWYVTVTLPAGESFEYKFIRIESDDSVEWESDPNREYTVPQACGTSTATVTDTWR
T5 sequence (P53051 whole entry): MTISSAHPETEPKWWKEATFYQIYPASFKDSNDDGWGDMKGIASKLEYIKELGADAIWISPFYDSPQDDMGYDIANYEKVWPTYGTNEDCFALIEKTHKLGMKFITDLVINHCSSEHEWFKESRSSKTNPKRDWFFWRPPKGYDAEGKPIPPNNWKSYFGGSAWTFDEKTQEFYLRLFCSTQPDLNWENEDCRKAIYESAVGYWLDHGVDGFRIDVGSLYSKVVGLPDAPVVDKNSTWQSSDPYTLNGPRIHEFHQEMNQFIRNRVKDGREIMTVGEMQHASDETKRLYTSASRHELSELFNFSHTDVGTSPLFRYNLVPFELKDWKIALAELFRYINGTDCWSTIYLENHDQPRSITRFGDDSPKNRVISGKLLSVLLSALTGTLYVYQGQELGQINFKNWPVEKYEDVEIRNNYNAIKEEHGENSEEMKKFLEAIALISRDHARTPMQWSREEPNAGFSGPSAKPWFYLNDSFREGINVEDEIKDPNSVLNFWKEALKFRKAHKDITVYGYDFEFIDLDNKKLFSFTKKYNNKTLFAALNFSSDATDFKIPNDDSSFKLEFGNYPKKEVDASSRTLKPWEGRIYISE
T2 sequence (Q42656 16-378): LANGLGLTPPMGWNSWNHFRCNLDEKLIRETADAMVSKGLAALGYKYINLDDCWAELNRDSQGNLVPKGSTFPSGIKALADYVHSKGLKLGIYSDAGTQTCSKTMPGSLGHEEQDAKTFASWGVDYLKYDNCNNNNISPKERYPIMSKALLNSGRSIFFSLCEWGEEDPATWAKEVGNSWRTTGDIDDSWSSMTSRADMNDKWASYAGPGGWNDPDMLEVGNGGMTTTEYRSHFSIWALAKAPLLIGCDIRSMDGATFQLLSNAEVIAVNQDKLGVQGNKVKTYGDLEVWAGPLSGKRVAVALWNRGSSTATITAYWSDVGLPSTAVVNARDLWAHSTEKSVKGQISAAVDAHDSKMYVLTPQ

CCCCN=C1SCC2C(O)C(O)C(O)CN12 (stereo not drawn) [Compound 5, 1-Deoxy-6-thio-5-N,6-S-(N′-butyliminomethylidene)nojirimycin]
Ki α-Glcase1 ([1]; mean ± SD): n.i.
Ki α-Galase [2]: n.i.
Ki β-Galase [3]: n.i.
Ki [4]: 1.1 ± 0.1 µM
Ki α-Manase [5]: n.i.
Ki α-Glcase2 (isomaltase (α-Glcase2); [7]): n.i.
Ki α-Glcase3 [6]: n.i.

OC1CN2C(=Nc3ccccc3)SCC2C(O)C1O (stereo not drawn) [Compound 6, 1-Deoxy-6-thio-5-N,6-S-(N′-phenyliminomethylidene)nojirimycin]
Ki ([1]; Ki α-Glcase1, mean ± SD): 406 ± 20 µM
Ki α-Galase [2]: n.i.
Ki β-Galase [3]: n.i.
Ki [4]: 48 ± 4 µM
Ki α-Manase [5]: n.i.
Ki (isomaltase (α-Glcase2); [8]): 44 ± 3 µM
Ki α-Glcase2 (isomaltase (α-Glcase2); [7]): n.i.
Ki [6]: 44 ± 3 µM

CCCCCCCCN=C1SCC2C(O)C(O)C(O)CN12 [Compound 7, 5-N,6-S-(N′-Octyliminomethylidene)-6-thio-1-deoxy-L-idonojirimycin]
Ki α-Glcase1 ([1]; mean ± SD): n.i.
Ki [2]: 504 ± 32 µM
Ki β-Galase [3]: n.i.
Ki [4]: 3.9 ± 0.3 µM
Ki α-Manase [5]: n.i.
Ki α-Glcase2 (isomaltase (α-Glcase2); [7]): n.i.
Ki α-Glcase3 [6]: n.i.

CCCCN=C1SCC2C(O)C(O)C(O)CN12 [Compound 8, 5-N,6-S-(N′-Butyliminomethylidene)-6-thio-1-deoxy-L-idonojirimycin]
Ki α-Glcase1 ([1]; mean ± SD): n.i.
Ki α-Galase [2]: n.i.
Ki β-Galase [3]: n.i.
Ki [4]: 19 ± 9 µM
Ki α-Manase [5]: n.i.
Ki α-Glcase2 (isomaltase (α-Glcase2); [7]): n.i.
Ki α-Glcase3 [6]: n.i.

OC1CN2C(=Nc3ccccc3)SCC2C(O)C1O [Compound 9, 5-N,6-S-(N′-Phenyliminomethylidene)-6-thio-1-deoxy-L-idonojirimycin]
Ki ([1]; Ki α-Glcase1, mean ± SD): 262 ± 15 µM
Ki [2]: 772 ± 35 µM
Ki β-Galase [3]: n.i.
Ki [4]: 309 ± 19 µM
Ki α-Manase [5]: n.i.
Ki α-Glcase2 (isomaltase (α-Glcase2); [7]): n.i.
Ki α-Glcase3 [6]: n.i.

CCCCCCCCNC(=S)N1C[C@H](O)[C@@H](O)[C@H](O)[C@H]1CO [Compound 10, 1-Deoxy-N-(N′-octylthiocarbamoyl)nojirimicin]
Ki ([1]; Ki α-Glcase1, mean ± SD): 481 ± 27 µM
Ki α-Galase [2]: n.i.
Ki β-Galase [3]: n.i.
Ki [4]: 1.3 ± 0.1 µM
Ki α-Manase [5]: n.i.
Ki (isomaltase (α-Glcase2); [9]): 116 ± 8 µM
Ki [6]: 129 ± 10 µM

CCCCNC(=S)N1C[C@H](O)[C@@H](O)[C@H](O)[C@H]1CO [Compound 11, 1-Deoxy-N-(N′-butylthiocarbamoyl)nojirimicin]
Ki ([1]; mean ± SD, read-out: Ki α-Glcase1): 568 ± 30 µM
Ki [2]: 847 ± 42 µM
Ki β-Galase [3]: n.i.
Ki [4]: 20 ± 2 µM
Ki α-Manase [5]: n.i.
Ki (isomaltase (α-Glcase2); [9]): 121 ± 9 µM
Ki [6]: 213 ± 18 µM

OC[C@@H]1[C@@H](O)[C@H](O)[C@@H](O)CN1C(=S)Nc1ccccc1 [Compound 12, 1-Deoxy-N-(N′-phenylthiocarbamoyl)nojirimicin]
Ki ([1]; Ki α-Glcase1, mean ± SD): 60 ± 4 µM
Ki [2]: 122 ± 9 µM
Ki β-Galase [3]: n.i.
Ki [4]: 23 ± 3 µM
Ki [5]: 294 ± 18 µM
Ki (isomaltase (α-Glcase2); [8]): 18 ± 2 µM
Ki (isomaltase (α-Glcase2); [9]): 10 ± 1 µM
Ki [6]: 18 ± 2 µM

CCCCCCCCNC(=S)N1C[C@H](O)[C@@H](O)[C@H](O)[C@@H]1CO [Compound 13, N-(N′-Octylthiocarbamoyl)-1-deoxy-L-idonojirimycin]
Ki α-Glcase1 ([1]; mean ± SD): n.i.
Ki [2]: 60 ± 15 µM
Ki β-Galase [3]: n.i.
Ki [4]: 227 ± 13 µM
Ki α-Manase [5]: n.i.
Ki α-Glcase2 (isomaltase (α-Glcase2); [7]): n.i.
Ki α-Glcase3 [6]: n.i.

CCCCNC(=S)N1C[C@H](O)[C@@H](O)[C@H](O)[C@@H]1CO [Compound 14, N-(N′-Butylthiocarbamoyl)-1-deoxy-L-idonojirimycin]
Ki α-Glcase1 ([1]; mean ± SD): n.i.
Ki α-Galase [2]: n.i.
Ki β-Galase [3]: n.i.
Ki [4]: 51 ± 13 µM
Ki α-Manase [5]: n.i.
Ki α-Glcase2 (isomaltase (α-Glcase2); [7]): n.i.
Ki α-Glcase3 [6]: n.i.

OC[C@H]1[C@@H](O)[C@H](O)[C@@H](O)CN1C(=S)Nc1ccccc1 [Compound 15, N-(N′-Phenylthiocarbamoyl)-1-deoxy-L-idonojirimycin]
Ki ([1]; Ki α-Glcase1, mean ± SD): 293 ± 18 µM
Ki [2]: 77 ± 16 µM
Ki β-Galase [3]: n.i.
Ki [4]: 294 ± 18 µM
Ki α-Manase [5]: n.i.
Ki (isomaltase (α-Glcase2); [9]): 443 ± 22 µM
Ki [6]: 271 ± 17 µM
